In patent US10857201B2, “NNIF and nNIF-related peptides and related methods” (UNIVERSITY OF UTAH RESEARCH FOUNDATION, priority 2016, dated 2020):
Entries after “also recorded” stand apart in the source; their conditions may differ.

Columns and labels:
[1] = molecular target: T1, neutrophil elastase (NE) (Homo sapiens, UniProt P08246); assay: Neutrophil elastase activity assay; format: biochemical; conditions: in vitro; (MeOSuc)-AAPV-(pNA) 160 μM, 3 hours, 37° C., and additional assays
T1 construct: purchased SIGMA-ALDRICH
T1 sequence (P08246 30-267): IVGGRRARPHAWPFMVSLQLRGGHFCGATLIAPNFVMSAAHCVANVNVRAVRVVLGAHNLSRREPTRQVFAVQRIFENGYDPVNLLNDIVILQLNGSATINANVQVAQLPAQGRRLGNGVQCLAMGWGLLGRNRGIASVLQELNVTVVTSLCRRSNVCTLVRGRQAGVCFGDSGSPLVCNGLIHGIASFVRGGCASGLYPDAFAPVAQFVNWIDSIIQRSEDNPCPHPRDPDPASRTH
Experimental: FIG. 12B depicts NE enzyme activity that was examined by cleavage of the synthetic substrate (MeOSuc)-AAPV-(pNA) to (MeOSuc)-AAPV and (pNA) as products detected by liquid chromatography and chromatogram peak identification by mass spectroscopy. (MeOSuc)-AAPV-(pNA) (160 μm) was incubated with NE (2 mU), sivelestat (160 μm), or NE and sivelestat (left panel) or with NE (2 mU), nNIF ([…]), or NE and nNIF (right panel) for 3 hours at 37° C. Chromatograms are offset on the X and Y axes for ease of comparison. In the presence of NE alone, the (MeOSvc)-AAPV-(pNA) peak was almost completely eliminated and (MeOSvc)-AAPV and (pNA) peaks were generated. […] In contrast, it was not inhibited by nNIF.
Synthetic fluorogenic substrate of NE, (MeOSuc)-AAPV-(pNA) (160 μM), was incubated with bioactive NE (500 nM)±the NE inhibitor, sivelestat (160 μM) or nNIF (50 nM), for 3 hours at 37° C. The reactions were quenched with 5% glacial acetic acid and centrifuged at 14,000 rpm for 5 minutes. Chromatograms were obtained using an AGILENT™ 1100 Series HPLC and a PHENOMENEX® 5 μm C18 LUNA® column (100 Å, 4.6×150 mm) over a 30 minute 10% to 90% B gradient (Buffer A 0.1% TFA in H2O, Buffer B 0.1% TFA in ACN). Mass spectra were obtained for secondary validation of the reaction products using an API® 3500 triple quadrupole mass spectrometer. Chromatograms were offset on both the X and Y axes (by 0.5 minutes and 0.1 A214, respectively) for greater visibility.

[2] = test system: reactive oxygen species generation by PMNs; assay: Reactive oxygen species generation (dihydrorhodamine, flow cytometry); format: cell-based, human; conditions: LPS 100 ng/mL, 1 hour
Experimental: FIG. 6B is a graph depicting reactive oxygen species generation that was measured by dihydrorhodamine detection after LPS stimulation (100 ng/mL, 1 hour).
Human PMNs isolated from healthy adult whole blood were resuspended to a concentration of 2×10^6 cells/mL in M-199 media and pre-incubated±CRISPP (1 nM) or CRISPP-SCR (1 nM) peptide for 1 hour at 37° C. in 5% CO2/95% air. The PMNs were then stimulated with LPS (100 ng/mL) for 1 hour, washed, and resuspended with a dihydrorhodamine ([…]; MOLECULAR PROBES®) and catalase (1000 Units/mL; SIGMA-ALDRICH®) mixture and incubated at 37° C. for 10 minutes. After incubation, samples were placed at 4° C. and analyzed for ROS-dependent fluorescence using flow cytometry as performed in the University of Utah core facility (BECTON DICKINSON™, […]™ software).
Without being bound by any specific theory, it was hypothesized that placentally expressed HTRA1, a serine protease, regulates the formation of NET-inhibitory peptides through cleavage of AAT. To test this hypothesis, term and preterm placenta were assessed for HTRA1 expression via western blotting. HTRA1 and AAT plasma expression from term and preterm infants and adults were determined by ELISA. Bioactive (0.5 μg) or placental eluted HTRA1 was incubated with AAT (8 μM) for 18 hours at 37° C. Carboxy-terminus fragments of AAT were detected using western blotting and mass spectrometry. […]

[3] = test system: nuclear histone H3 citrullination; assay: Histone H3 citrullination in PMA-activated neutrophils (immunocytochemistry); format: cell-based, human; conditions: PMA 20 nM, 15 minutes; peptides 1 nM, Cl-amidine 10 μM
Excerpt: Green fluorescence=citrullinated-histone H3, magenta fluorescence=nuclear DNA (60× magnification; scale bar=20 μm). The right panel depicts Histone H3 citrullination that was quantified using IMAGEJ™ software (mean citrullinated-histone H3 pixel area per cell±SEM) (n=3). One way ANOVA with Tukey's post hoc testing, *P<0.05.
Imaging was accomplished via confocal microscopy using a FV1000 IX81 confocal microscope and FLUOVIEW™ software (OLYMPUS™). Semi-quantitation was accomplished using IMAGEJ™ software (NIH) to determine the average citrullinated histone H3 content per cell.

[4] = test system: C57BL/6 mice challenged with LPS; assay: Mouse model of systemic inflammation induced by LPS (endotoxemia), survival; format: in vivo
Experimental: Animals with no treatments or given LPS alone were studied in parallel (n≥10 mice for each condition). **P<0.01, log-rank (Mantel-Cox) statistical tool used. The survival difference between nNIF-LPS and CRISPP-LPS compared to CRISPP-SCR-LPS trended toward significance (§ P=0.051).
Control mice were i.p. injected with saline alone. Fluid resuscitation and antibiotic treatment were not used in these experiments. Survival was assessed over 50 or 72 hour intervals. All mice were included in the final survival analysis.

Substance	NE activity (substrate cleavage) [1]	generation of reactive oxygen species (ROS) [2]	nuclear histone H3 citrullination [3]	animals alive at 50 hours ([4]; i.p. LPS, first experiment, n=6 per group)	survival advantage at 72 hours ([4]; second experiment, compared to LPS alone)
M_IPPEVKFNKPFVFLMIDQNTKVPLFMGK [CRISPP, consensus peptide based on factors present in the blood of patients with cancer]	neither nNIF nor CRISPP inhibited NE activity	did not inhibit; also recorded: not inhibited	inhibited	all	–
KFNKPFVFLMIEQNTKSPLFMGKVVNPTQ (listed as Homo sapiens) [nNIF]	neither nNIF nor CRISPP inhibited NE activity; also recorded: not inhibited	did not inhibit	inhibited	–	durable
